In ChEMBL document CHEMBL4418482, “2-hydroxyarylamide derivative or pharmaceutically acceptable salt thereof, preparation method thereof, and pharmaceutical composition for preventing or treating cancer containing same as active ingredient” (2014):
The source made the active and inactive calls. The rule behind the calls is not given here.

Legend:
[1] = biological target: Transmembrane protease serine 4 (Homo sapiens) (UniProt Q9NRS4); experiment: Inhibition of TMPRSS4 serine protease domain (Val205 to Leu437 residues) (unknown origin) expressed in Escherichia coli BL21 (DE3) at 30 uM using Z-Phe-Arg7-amido-4-methylcoumarin hydrochloride substrate measured at 5 mins interval for 150 mins by fluorescence based assay relative to control
Sequence of Transmembrane protease serine 4 (Homo sapiens) (Q9NRS4 whole entry, the tested form may be a part): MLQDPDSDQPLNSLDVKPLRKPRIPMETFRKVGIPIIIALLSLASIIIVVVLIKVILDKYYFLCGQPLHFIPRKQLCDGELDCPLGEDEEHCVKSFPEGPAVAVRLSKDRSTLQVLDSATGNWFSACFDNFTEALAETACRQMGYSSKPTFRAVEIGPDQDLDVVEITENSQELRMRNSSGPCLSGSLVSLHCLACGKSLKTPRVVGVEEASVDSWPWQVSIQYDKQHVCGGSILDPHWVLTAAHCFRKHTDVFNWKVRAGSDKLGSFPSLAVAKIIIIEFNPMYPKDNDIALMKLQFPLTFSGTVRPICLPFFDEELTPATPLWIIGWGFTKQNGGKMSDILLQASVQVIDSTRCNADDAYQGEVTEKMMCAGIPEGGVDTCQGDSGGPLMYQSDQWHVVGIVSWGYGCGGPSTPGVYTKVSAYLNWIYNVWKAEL

[2] = biological target: Transmembrane protease serine 4 (Homo sapiens) (UniProt Q9NRS4); experiment: Inhibition of TMPRSS4 serine protease domain (Val205 to Leu437 residues) (unknown origin) expressed in Escherichia coli BL21 (DE3) at 1 mM using Boc-Gln-Ala-Arg-7-amido-4-methylcoumarin hydrochloride substrate measured at 5 mins intervals
[3] = biological target: Transmembrane protease serine 4 (Homo sapiens) (UniProt Q9NRS4); experiment: Inhibition of TMPRSS4 serine protease domain (Val205 to Leu437 residues) (unknown origin) expressed in Escherichia coli BL21 (DE3) at 10 uM using Z-Phe-Arg7-amido-4-methylcoumarin hydrochloride substrate measured at 5 mins interval for 150 mins by fluorescence based assay relative to control
[4] = biological target: Transmembrane protease serine 4 (Homo sapiens) (UniProt Q9NRS4); experiment: Inhibition of TMPRSS4 serine protease domain (Val205 to Leu437 residues) (unknown origin) expressed in Escherichia coli BL21 (DE3) at 100 uM using Z-Phe-Arg7-amido-4-methylcoumarin hydrochloride substrate measured at 5 mins interval for 150 mins by fluorescence based assay relative to control

inhibition [1] [%]	inhibition [3] [%]	inhibition [4] [%]	SMILES	inhibition [2]
77	–	–	Cc1c(NC(=O)c2cc(Cl)ccc2O)cccc1C(F)(F)F	–
–	–	–	NCCc1ccc(S(=O)(=O)F)cc1	Active
31	5	–	O=C(Nc1cc(C(F)(F)F)cc(C(F)(F)F)c1Cl)c1cc(-c2ccc(F)cc2F)ccc1O	–
46	30	98	O=C(Nc1ccc(C(F)(F)F)c(Br)c1)c1cc(Cl)ccc1O	–
